Assay results as given in patent US12370166B2, “Pentadecanoylcarnitine for treatment of conditions related to the quality of aging and longevity” (EPITRACKER, INC., priority 2021, dated 2025).

Columns and labels:
[1] = system: BT cell system; assay: Human primary cell phenotypic profiling, BT cell system (asthma, oncology, autoimmunity, allergy); type: cell-based; conditions: 6.7 μM stated for pentadecanoylcarnitine
Protocol: Methods for this human primary cell phenotypic profiling study were those previously described (Venn-Watson, S., Lumpkin, R., Dennis, E. A. Efficacy of dietary odd-chain saturated fatty acid pentadecanoic acid parallels broad associated health benefits in humans: could it be essential? Sci Rep 10:8161 (2020)). Significant activities of pentadecanoylcarnitine were those that were equal to or greater than 0.1|log 10| at 6.7 μM. Biomarkers with significant changes caused by pentadecanoylcarnitine were compared with results from the same study using pentadecanoic acid (C15:0).

[2] = target: T1, Cholinergic receptor muscarinic 1 (Homo sapiens, UniProt P11229); assay: Receptor-based pharmacological activity, antagonist; type: biochemical; conditions: for IC50: read-out: RC50 (IC50)
T1 sequence (P11229 1-460): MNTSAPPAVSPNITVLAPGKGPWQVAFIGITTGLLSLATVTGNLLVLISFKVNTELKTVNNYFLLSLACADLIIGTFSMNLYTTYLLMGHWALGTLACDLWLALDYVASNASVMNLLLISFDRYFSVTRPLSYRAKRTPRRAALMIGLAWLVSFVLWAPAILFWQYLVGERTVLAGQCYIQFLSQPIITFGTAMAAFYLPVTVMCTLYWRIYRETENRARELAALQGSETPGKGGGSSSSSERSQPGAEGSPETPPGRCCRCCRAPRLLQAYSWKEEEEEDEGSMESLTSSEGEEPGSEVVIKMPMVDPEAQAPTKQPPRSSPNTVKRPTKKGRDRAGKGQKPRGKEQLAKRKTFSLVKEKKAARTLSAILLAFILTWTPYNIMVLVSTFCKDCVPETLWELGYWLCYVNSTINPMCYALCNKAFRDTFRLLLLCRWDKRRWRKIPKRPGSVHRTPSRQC
Protocol: (§1) Methods for this study have been previously described (Venn-Watson, S., Lumpkin, R., Dennis, E. A. Efficacy of dietary odd-chain saturated fatty acid pentadecanoic acid parallels broad associated health benefits in humans: could it be essential? Sci Rep 10:8161 (2020)). Significant activities of pentadecanoylcarnitine were those tagged as having maximum pharmacological activities that were greater than or equal to 70% that of the internal control between the concentrations of 1 to 20 μM. Significant pharmacological activities caused by pentadecanoylcarnitine were compared with results from the same assays using pentadecanoic acid (C15:0).

[3] = target: Dopamine receptor D1 (Homo sapiens, UniProt P21728); assay: as above; type: biochemical; conditions: for IC50: read-out: RC50 (IC50)
Protocol: as §1

[4] = target: Histamine H1 receptor (Homo sapiens, UniProt P35367); assay: as above; type: biochemical; conditions: for IC50: read-out: RC50 (IC50)
Protocol: as §1

[5] = target: Histamine H2 receptor (Homo sapiens, UniProt P25021); assay: as above; type: biochemical; conditions: for IC50: read-out: RC50 (IC50)
Protocol: as §1

[6] = target: Cannabinoid receptor 1 (Homo sapiens, UniProt P21554); assay: Receptor-based pharmacological activity, agonist; type: biochemical; conditions: for EC50: read-out: RC50 (EC50); for Pharmacological activity at cannabinoid receptor 1: at approximately 1 to 20 μM
Protocol: as §1

[7] = target: Cannabinoid receptor 2 (Homo sapiens, UniProt P34972); assay: Receptor-based pharmacological activity, agonist; type: biochemical; conditions: for EC50: read-out: RC50 (EC50); for Pharmacological activity at cannabinoid receptor 2: at approximately 1 to 20 μM
Protocol: as §1

[8] = target: T2, Cholinergic receptor muscarinic 2 (Homo sapiens, UniProt P08172); assay: Receptor-based pharmacological activity, agonist; type: biochemical; conditions: positive control Acetylcholine chloride; for EC50: read-out: RC50 (EC50)
T2 sequence (P08172 1-466): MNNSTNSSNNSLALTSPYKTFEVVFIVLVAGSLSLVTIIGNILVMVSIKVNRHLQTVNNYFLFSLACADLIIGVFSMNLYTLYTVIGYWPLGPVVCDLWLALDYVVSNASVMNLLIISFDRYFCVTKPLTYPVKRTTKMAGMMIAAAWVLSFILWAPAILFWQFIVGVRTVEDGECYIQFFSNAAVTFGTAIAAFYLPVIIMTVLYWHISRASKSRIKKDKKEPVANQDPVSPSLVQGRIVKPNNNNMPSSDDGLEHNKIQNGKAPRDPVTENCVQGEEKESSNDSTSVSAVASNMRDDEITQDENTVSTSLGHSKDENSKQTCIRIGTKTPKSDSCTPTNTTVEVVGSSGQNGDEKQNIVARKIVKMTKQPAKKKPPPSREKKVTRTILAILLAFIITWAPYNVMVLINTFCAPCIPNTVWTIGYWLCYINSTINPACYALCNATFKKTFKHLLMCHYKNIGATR
Protocol: as §1

[9] = target: T3, α-2A adrenergic receptor (Homo sapiens, UniProt P08913); assay: Receptor-based pharmacological activity, agonist; type: biochemical; conditions: for EC50: read-out: RC50 (EC50)
T3 sequence (P08913 1-465): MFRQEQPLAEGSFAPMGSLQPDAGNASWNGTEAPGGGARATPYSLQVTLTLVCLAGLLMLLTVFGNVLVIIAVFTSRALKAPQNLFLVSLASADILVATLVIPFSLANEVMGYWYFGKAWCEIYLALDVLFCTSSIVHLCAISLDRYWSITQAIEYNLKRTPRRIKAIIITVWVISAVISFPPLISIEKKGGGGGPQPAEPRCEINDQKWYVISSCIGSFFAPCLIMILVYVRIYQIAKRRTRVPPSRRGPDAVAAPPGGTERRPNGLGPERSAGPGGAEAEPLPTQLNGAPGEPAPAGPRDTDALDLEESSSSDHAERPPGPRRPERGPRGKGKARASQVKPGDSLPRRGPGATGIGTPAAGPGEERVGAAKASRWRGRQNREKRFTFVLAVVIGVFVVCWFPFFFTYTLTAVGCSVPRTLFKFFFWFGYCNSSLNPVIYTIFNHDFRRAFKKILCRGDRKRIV
Protocol: as §1

[10] = target: Serotonin Transporter (Homo sapiens, UniProt P31645); assay: Transporter pharmacological activity, blocker; type: biochemical; conditions: for IC50: read-out: RC50 (IC50)
Protocol: as §1

[11] = Antagonist, positive control Atropine
[12] = Antagonist, positive control SCH 39166
[13] = Antagonist, positive control Mepyramine
[14] = Antagonist, positive control Tiotidine
[15] = Agonist, positive control CP 55940
[16] = read-out: Max Response (%) Compared to Positive Control
[17] = Agonist, positive control UK 14304
[18] = Blocker, positive control Clomipramine
[19] = Agonist, positive control CP 55940, 1 to 20 μM
[20] = listed as pentadecenoyl carnitine

Sequence of Dopamine receptor D1 (P21728 whole entry, species assumed): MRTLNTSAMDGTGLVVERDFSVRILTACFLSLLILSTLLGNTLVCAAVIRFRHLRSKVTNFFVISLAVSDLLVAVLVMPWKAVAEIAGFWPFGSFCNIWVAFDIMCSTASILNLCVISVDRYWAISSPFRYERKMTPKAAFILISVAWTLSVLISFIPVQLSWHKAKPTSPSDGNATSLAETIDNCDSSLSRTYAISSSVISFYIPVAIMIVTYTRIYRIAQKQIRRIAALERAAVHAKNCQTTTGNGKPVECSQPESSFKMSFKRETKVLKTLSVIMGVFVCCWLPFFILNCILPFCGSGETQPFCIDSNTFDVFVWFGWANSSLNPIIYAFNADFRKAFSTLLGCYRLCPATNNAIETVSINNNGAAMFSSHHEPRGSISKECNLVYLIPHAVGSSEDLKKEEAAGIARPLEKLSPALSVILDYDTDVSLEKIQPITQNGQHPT
Sequence of Serotonin Transporter (P31645 whole entry): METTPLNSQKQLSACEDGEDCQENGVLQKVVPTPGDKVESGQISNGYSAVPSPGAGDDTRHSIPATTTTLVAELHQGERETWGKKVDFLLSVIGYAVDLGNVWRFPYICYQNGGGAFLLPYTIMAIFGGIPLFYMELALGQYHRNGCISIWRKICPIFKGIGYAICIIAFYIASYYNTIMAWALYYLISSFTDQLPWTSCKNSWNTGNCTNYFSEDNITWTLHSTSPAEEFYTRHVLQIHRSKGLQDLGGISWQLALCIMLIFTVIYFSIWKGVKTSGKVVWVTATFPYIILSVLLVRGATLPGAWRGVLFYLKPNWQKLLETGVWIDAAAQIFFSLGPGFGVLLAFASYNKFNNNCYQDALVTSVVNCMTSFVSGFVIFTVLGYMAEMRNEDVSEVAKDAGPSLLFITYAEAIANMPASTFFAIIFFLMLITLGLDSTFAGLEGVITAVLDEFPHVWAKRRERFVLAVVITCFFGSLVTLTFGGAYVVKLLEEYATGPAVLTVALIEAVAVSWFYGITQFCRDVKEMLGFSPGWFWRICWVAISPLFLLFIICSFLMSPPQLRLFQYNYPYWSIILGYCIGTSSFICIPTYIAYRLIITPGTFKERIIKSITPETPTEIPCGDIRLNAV
Sequence of Histamine H2 receptor (P25021 whole entry): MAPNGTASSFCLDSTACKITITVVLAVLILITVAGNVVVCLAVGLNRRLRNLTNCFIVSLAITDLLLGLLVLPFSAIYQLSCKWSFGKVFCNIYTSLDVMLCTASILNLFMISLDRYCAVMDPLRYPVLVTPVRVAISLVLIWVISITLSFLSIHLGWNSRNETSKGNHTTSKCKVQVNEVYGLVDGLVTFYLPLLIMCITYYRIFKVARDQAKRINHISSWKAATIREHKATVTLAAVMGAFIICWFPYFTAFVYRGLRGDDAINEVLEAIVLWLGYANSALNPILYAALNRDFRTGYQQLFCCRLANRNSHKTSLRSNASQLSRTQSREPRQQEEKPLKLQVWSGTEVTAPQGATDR
Sequence of Histamine H1 receptor (P35367 whole entry): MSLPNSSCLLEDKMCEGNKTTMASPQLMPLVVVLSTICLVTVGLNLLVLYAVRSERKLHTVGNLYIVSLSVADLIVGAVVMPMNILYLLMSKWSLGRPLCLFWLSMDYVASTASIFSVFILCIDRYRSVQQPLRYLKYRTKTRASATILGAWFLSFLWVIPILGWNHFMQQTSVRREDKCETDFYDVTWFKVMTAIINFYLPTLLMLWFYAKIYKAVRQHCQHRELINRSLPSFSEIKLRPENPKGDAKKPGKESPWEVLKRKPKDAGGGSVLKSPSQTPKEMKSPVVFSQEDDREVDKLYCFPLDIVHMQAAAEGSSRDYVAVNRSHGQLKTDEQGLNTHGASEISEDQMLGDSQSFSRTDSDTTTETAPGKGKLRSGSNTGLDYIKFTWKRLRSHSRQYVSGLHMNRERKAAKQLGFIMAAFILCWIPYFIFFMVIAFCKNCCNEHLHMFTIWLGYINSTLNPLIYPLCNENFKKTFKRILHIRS
Sequence of Cannabinoid receptor 1 (P21554 whole entry, species assumed): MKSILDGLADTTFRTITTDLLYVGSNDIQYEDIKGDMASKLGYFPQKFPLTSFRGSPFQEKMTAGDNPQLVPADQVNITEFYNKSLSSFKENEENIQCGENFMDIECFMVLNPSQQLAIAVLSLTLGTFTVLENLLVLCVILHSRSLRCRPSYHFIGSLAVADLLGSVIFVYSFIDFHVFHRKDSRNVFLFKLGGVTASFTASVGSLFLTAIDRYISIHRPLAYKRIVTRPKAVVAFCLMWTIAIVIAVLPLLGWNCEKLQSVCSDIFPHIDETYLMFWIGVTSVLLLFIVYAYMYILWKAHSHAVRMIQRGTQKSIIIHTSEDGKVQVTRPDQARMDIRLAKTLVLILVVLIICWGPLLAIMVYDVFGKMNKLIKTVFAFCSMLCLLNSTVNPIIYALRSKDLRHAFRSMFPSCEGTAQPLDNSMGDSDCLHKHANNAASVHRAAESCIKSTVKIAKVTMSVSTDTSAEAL
Sequence of Cannabinoid receptor 2 (P34972 whole entry): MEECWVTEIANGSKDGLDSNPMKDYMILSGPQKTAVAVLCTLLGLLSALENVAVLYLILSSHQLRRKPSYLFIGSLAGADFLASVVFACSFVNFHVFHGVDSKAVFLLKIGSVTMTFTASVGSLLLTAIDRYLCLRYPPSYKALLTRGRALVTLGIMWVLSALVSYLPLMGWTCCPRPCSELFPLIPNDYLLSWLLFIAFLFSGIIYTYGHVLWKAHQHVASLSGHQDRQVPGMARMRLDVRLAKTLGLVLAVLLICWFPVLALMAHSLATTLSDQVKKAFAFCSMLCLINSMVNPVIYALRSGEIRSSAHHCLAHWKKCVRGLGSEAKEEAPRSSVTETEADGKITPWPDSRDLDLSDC

CCCCCCCCCCCCCCC(=O)O [Pentadecanoic acid (C15:0), Pentadecanoic acid]
sIL-6 biomarker change [1]: +0.12 log 10 | sTNF-α biomarker change [1]: +0.14 log 10 | Emax ([2]; Antagonist, positive control Atropine, 1 to 20 μM, read-out: Max Response (%) Compared to Positive Control): 0% | IC50 [2, 11]: > 20 µM | Emax ([3]; Antagonist, positive control SCH 39166, 1 to 20 μM, read-out: Max Response (%) Compared to Positive Control): 4% | IC50 [3, 12]: > 20 µM | Emax ([4]; Antagonist, positive control Mepyramine, 1 to 20 μM, read-out: Max Response (%) Compared to Positive Control): 5% | IC50 [4, 13]: > 20 µM | Emax ([5]; Antagonist, positive control Tiotidine, 1 to 20 μM, read-out: Max Response (%) Compared to Positive Control): 2% | IC50 [5, 14]: > 20 µM | EC50 [6, 15]: > 20 µM | Emax [6, 16]: 25% | Emax ([7]; Agonist, positive control CP 55940, 1 to 20 μM, read-out: Max Response (%) Compared to Positive Control): 22% | EC50 [7, 15]: > 20 µM | Emax ([8]; 1 to 20 μM, read-out: Max Response (%) Compared to Positive Control): 2% | EC50 [8]: > 20 µM | Emax ([9]; Agonist, positive control UK 14304, 1 to 20 μM, read-out: Max Response (%) Compared to Positive Control): 22% | EC50 [9, 17]: > 20 µM | IC50 [10, 18]: > 20 µM | Emax [10, 16]: 1%

CCCCCCCCCCCCCCC(=O)O[C@H](CC(=O)[O-])C[N+](C)(C)C [Pentadecanoylcarnitine, pentadecanoylcarnitine]
sIL-6 biomarker change [1]: −0.13 log 10 | sTNF-α biomarker change [1]: −0.10 log 10 | Max Response (%) Compared to Positive Control ([2]; Antagonist, positive control Atropine, 1 to 20 μM): 77% | IC50 [2, 11]: 10.5 µM | Pharmacological activity at cholinergic receptor muscarinic 1 ([2]; at approximately 1 to 20 μM): antagonist | Max Response (%) Compared to Positive Control ([3]; Antagonist, positive control SCH 39166, 1 to 20 μM): 105% | IC50 [3, 12]: 6.2 µM | Pharmacological activity at dopamine receptor D1 ([3]; at approximately 1 to 20 μM): antagonist | Max Response (%) Compared to Positive Control ([4]; Antagonist, positive control Mepyramine, 1 to 20 μM): 71% | IC50 [4, 13]: 10.9 µM | Pharmacological activity at histamine H1 receptor ([4]; at approximately 1 to 20 μM): antagonist | Max Response (%) Compared to Positive Control ([5]; Antagonist, positive control Tiotidine, 1 to 20 μM): 98% | IC50 [5, 14]: 6.1 µM | Pharmacological activity at histamine H2 receptor ([5]; at approximately 1 to 20 μM): antagonist | Max Response (%) Compared to Positive Control [6, 19]: 111% | EC50 [6, 15]: 3.7 µM | Pharmacological activity at cannabinoid receptor 1 [6]: agonist | Pharmacological activity at cannabinoid receptor 1 [6, 20]: fully activates | Max Response (%) Compared to Positive Control [7, 19]: 106% | EC50 [7, 15]: 3.2 µM | Pharmacological activity at cannabinoid receptor 2 [7]: agonist | Pharmacological activity at cannabinoid receptor 2 [7, 20]: fully activates | Max Response (%) Compared to Positive Control ([8]; 1 to 20 μM): 206% | EC50 [8]: 3.9 µM | Max Response (%) Compared to Positive Control ([9]; Agonist, positive control UK 14304, 1 to 20 μM): 105% | EC50 [9, 17]: 5.9 µM | Pharmacological activity at α-2A adrenergic receptor ([9]; at approximately 1 to 20 μM): agonist | Max Response (%) Compared to Positive Control ([10]; Blocker, positive control Clomipramine, 1 to 20 μM): 83% | IC50 [10, 18]: 7.4 µM | Pharmacological activity at SERT ([10]; at approximately 1 to 20 μM): blocker
